One test concerns the target T1, human α7 nAChR (Homo sapiens, UniProt P36544).
T1 construct: expressed in transfected cells
Kind of test: Evaluation of PAM activity with human α7 nACh receptor stably expressing cells (aequorin luminescence, FDSS7000). It counts as cell-based. Particulars: 1 μM test compound (values marked *, footnote of Table 25); ACh at EC20; ratio of RLU (Max-Min) to control wells; read-out: α7PAM (%) @1 μM. Here is the method: Evaluation of PAM activity with human α7 nACh receptor stably expressing cells
(1) Human α7 nAChR stably expressing cells
Human α7 nAChR stably expressing cells were generated and cultured.
Thus, the cells were subcultured.
Seven days after subculturing, the cells were treated with TrypLE Express to collect them when they were about 80% confluent.
On the next day after seeding, Viviren (cat#E649X, Promega, Madison, Wis., USA) was added to the medium so that the final concentration could be 4 μM (15 μL/well). The plates were centrifuged and then placed in the dark for 4 hours at room temperature.
(2) Preparation of the Test Samples
Each of the test compounds was dissolved in DMSO to prepare each test sample at a concentration of 1000-fold the final concentration. To the solution was added Hanks/20 mM HEPES/0.2% BSA (cat#A3803, Sigma, St. Louis, Mo., USA), and the concentration was adjusted to 6-fold the final concentration.
(3) Evaluation of PAM Activity
FDSS7000 (Hamamatsu Photonics) was used to detect the luminescence signal evoked by α7 nAChR stimulation. The cells and a luminescent substrate were put on a plate, and the test sample was added thereto. […] The ratio of the RLU (Max-Min) of the test-compound-containing wells to that of the control wells was defined as PAM activity.
T1 sequence (P36544 23-502): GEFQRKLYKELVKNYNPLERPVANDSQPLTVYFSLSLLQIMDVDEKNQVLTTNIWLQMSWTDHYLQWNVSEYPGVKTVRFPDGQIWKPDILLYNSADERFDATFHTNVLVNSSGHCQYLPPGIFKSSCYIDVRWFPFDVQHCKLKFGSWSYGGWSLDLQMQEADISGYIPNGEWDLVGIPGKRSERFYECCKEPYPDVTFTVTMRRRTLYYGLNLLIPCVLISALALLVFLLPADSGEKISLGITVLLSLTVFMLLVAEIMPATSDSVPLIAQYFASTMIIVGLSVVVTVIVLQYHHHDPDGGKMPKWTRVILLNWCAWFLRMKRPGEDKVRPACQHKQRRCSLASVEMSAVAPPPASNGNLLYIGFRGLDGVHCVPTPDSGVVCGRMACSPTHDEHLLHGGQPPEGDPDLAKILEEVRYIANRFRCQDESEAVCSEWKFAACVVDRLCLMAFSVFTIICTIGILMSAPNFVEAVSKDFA
Take `O=C(N[C@H]1CC[C@@H](n2cnc(-c3cccc(F)c3)c2Cl)CC1)C1CCC1` [Example 176]: the activity at 1 µM turned out to be 258%.

On to `O=C(N[C@H]1CC[C@@H](n2cnc(-c3cccc(F)c3)c2Cl)CC1)C1CCCC1` [Example 177], for which the activity at 1 µM turned out to be 389%.

As to `O=C(N[C@H]1CC[C@@H](n2cnc(-c3ccc(F)cc3)c2Cl)CC1)C1CCCC1` [Example 182], the activity at 1 µM turned out to be 682%.

As to `O=C(N[C@H]1CC[C@@H](n2cnc(-c3ccc(F)cc3)c2Cl)CC1)c1ccc(F)cc1` [Example 184], the activity at 1 µM was found to be 303%.

For `COc1cc(-c2ncn([C@H]3CC[C@@H](NC(=O)C4CCC4)CC3)c2Cl)ccc1F` [Example 191], the activity at 1 µM was 364%.

Consider `COc1cc(-c2ncn([C@H]3CC[C@@H](NC(=O)C4CCC4)CC3)c2Cl)c(Cl)cc1F` [Example 192], for which the activity at 1 µM came to 274%.

Turning to `CC(C)(C)C(=O)N[C@H]1CC[C@@H](n2cnc(-c3ccc(C(F)(F)F)cc3)c2C#N)CC1` [Example 199], the activity at 1 µM worked out at 230%.

As for `CC(C)(C)C(=O)N[C@H]1CC[C@@H](n2cnc(-c3cccc(C(F)(F)F)c3)c2C#N)CC1` [Example 200], the activity at 1 µM came to 180%.

Still in this test, the particulars now being: 10 μM test compound; ACh at EC20; ratio of RLU (Max-Min) to control wells; read-out: α7PAM (%) @10 μM.
Turning to `O=C(N[C@H]1CC[C@@H](n2cnc(-c3ccccc3)c2Cl)CC1)C1CCCCC1` [Example 168], the activity at 10 µM was 829%.

As for `O=C(N[C@H]1CC[C@@H](n2cnc(-c3ccccc3)c2Cl)CC1)C1CCC(F)(F)CC1` [Example 169], the activity at 10 µM stood at 454%.

As to `O=C(N[C@H]1CC[C@@H](n2cnc(-c3ccccc3)c2Cl)CC1)C1CCCC1` [Example 170], the activity at 10 µM came to 530%.

As to `O=C(N[C@H]1CC[C@@H](n2cnc(-c3ccccc3)c2Cl)CC1)C1CCC1` [Example 171], the activity at 10 µM is 551%.

For the compound `CC(C)(F)C(=O)N[C@H]1CC[C@@H](n2cnc(-c3ccccc3)c2Cl)CC1` [Example 172], the activity at 10 µM turned out to be 480%.

`O=C(N[C@H]1CC[C@@H](n2cnc(-c3ccccc3)c2Cl)CC1)C1(C(F)(F)F)CC1` [Example 174]: the activity at 10 µM came to 224%.

For the compound `CC(C)(F)C(=O)N[C@H]1CC[C@@H](n2cnc(-c3cccc(F)c3)c2Cl)CC1` [Example 175], the activity at 10 µM stood at 397%.

Regarding `COc1ccc(-c2ncn([C@H]3CC[C@@H](NC(=O)C(C)(C)F)CC3)c2Cl)cc1Cl` [Example 178], the activity at 10 µM came to 775%.

For the compound `COc1ccc(-c2ncn([C@H]3CC[C@@H](NC(=O)C4CCC4)CC3)c2Cl)cc1Cl` [Example 179], the activity at 10 µM turned out to be 269%.

In the case of `COc1ccc(-c2ncn([C@H]3CC[C@@H](NC(=O)C4CCCC4)CC3)c2Cl)cc1Cl` [Example 180], the activity at 10 µM turned out to be 375%.

On to `O=C(N[C@H]1CC[C@@H](n2cnc(-c3ccc(F)cc3)c2Cl)CC1)C1CCC1` [Example 181], for which the activity at 10 µM is 641%.

On to `CC(C)(F)C(=O)N[C@H]1CC[C@@H](n2cnc(-c3ccccc3F)c2Cl)CC1` [Example 185], for which the activity at 10 µM was found to be 576%.

Turning to `COc1cc(-c2ncn([C@H]3CC[C@@H](NC(=O)C(C)(C)F)CC3)c2Cl)ccc1F` [Example 186], the activity at 10 µM came to 254%.

As to `O=C(N[C@H]1CC[C@@H](n2cnc(-c3ccccc3)c2Cl)CC1)C1CC(F)(F)C1` [Example 188], the activity at 10 µM came to 581%.

For `CC(C)(F)C(=O)N[C@H]1CC[C@@H](n2cnc(-c3cccc(C(F)(F)F)c3)c2Cl)CC1` [Example 193], the activity at 10 µM amounted to 187%.

With `O=C(N[C@H]1CC[C@@H](n2cnc(-c3cccc(C(F)(F)F)c3)c2Cl)CC1)C1CCC1` [Example 195], the activity at 10 µM came out at 142%.

`O=C(N[C@H]1CC[C@@H](n2cnc(-c3ccc(C(F)(F)F)cc3)c2Cl)CC1)C1CCC1` [Example 196]: the activity at 10 µM was 498%.

In the case of `CC(C)(F)C(=O)N[C@H]1CC[C@@H](n2cnc(-c3ccccc3)c2C#N)CC1` [Example 197, N-[cis-4-(5-cyano-4-phenyl-1H-imidazol-1-yl)cyclohexyl]-2-fluoro-2-methylpropanamide], the activity at 10 µM was 637%.

`N#Cc1c(-c2ccccc2)ncn1[C@H]1CC[C@@H](NC(=O)C2CCC2)CC1` [Example 198]: the activity at 10 µM is 799%.

Take `CC(C)(F)C(=O)N[C@H]1CC[C@@H](n2cnc(-c3ccc(C(F)(F)F)cc3)c2C#N)CC1` [Example 201, N-(cis-4-{5-cyano-4-[4-(trifluoromethyl)phenyl]-1H-imidazol-1-yl}cyclohexyl)-2-fluoro-2-methylpropanamide]: the activity at 10 µM turned out to be 224%.

For `CC(C)(F)C(=O)N[C@H]1CC[C@@H](n2cnc(-c3cccc(C(F)(F)F)c3)c2C#N)CC1` [Example 202], the activity at 10 µM is 263%.

Turning to `N#Cc1c(-c2ccccc2)ncn1[C@H]1CC[C@@H](NC(=O)C2CC(F)(F)C2)CC1` [Example 203], the activity at 10 µM is 641%.

Regarding `O=C(N[C@H]1CC[C@H](n2cnc(-c3ccccc3)c2)CC1)C1CCCCC1` [Example 204], the activity at 10 µM came out at 172%.

In the case of `O=C(N[C@H]1CC[C@H](n2cnc(-c3ccccc3)c2)CC1)C1CCC(F)(F)CC1` [Example 205], the activity at 10 µM was determined as 110%.

With `O=C(N[C@H]1CC[C@H](n2cnc(-c3ccccc3)c2Cl)CC1)C1CCCCC1` [Example 206], the activity at 10 µM was 102%.

Turning to `O=C(N[C@H]1CC[C@H](n2cnc(-c3ccccc3)c2Cl)CC1)C1CCC(F)(F)CC1` [Example 207], the activity at 10 µM was 115%.

Regarding `Fc1ccc(-c2ncn([C@H]3CC[C@@H](Nc4cc(C(F)(F)F)ncn4)CC3)c2Cl)cc1` [Example 237], the activity at 10 µM was found to be 405%.

With `Cc1c(-c2ccc(F)cc2)ncn1[C@H]1CC[C@@H](Nc2cc(C(F)(F)F)ncn2)CC1` [Example 239], the activity at 10 µM was 207%.

With `O=C(NC1CCCCC1)N1CCCC(n2cnc(-c3ccc(F)cc3)c2)CC1` (centres unmarked) [Example 240], the activity at 10 µM is 280%.

In the case of `O=C(NC1CCCCC1)N1CCCC(n2cnc(-c3ccc(F)cc3)c2Cl)CC1` (centres unmarked) [Example 241], the activity at 10 µM turned out to be 314%.

For `O=C(C1CCC(F)(F)CC1)N1CCCC(n2cnc(-c3ccc(F)cc3)c2)CC1` (centres unmarked) [Example 242], the activity at 10 µM was 297%.

In the case of `O=C(C1CCC(F)(F)CC1)N1CCCC(n2cnc(-c3ccc(F)cc3)c2Cl)CC1` (centres unmarked) [Example 243], the activity at 10 µM came to 290%.

In the case of `O=C(NC1CCOCC1)N1CCC(n2cnc(-c3cccc(F)c3)c2)CC1` [Example 244], the activity at 10 µM was 175%.

With `O=C(NC1CCOCC1)N1CCC(n2cnc(-c3ccc(F)cc3)c2)CC1` [Example 245], the activity at 10 µM came out at 197%.

With `O=C(NC1CCOCC1)N1CCC(n2cnc(-c3ccc(Cl)cc3F)c2)CC1` [Example 248], the activity at 10 µM is 901%.

Turning to `O=C(NC1CCOCC1)N1CCC(n2cnc(-c3ccc(C(F)(F)F)c(F)c3)c2)CC1` [Example 251], the activity at 10 µM was found to be 369%.

Take `O=C(NC1CCOCC1)N1CCC(n2cnc(-c3ccccc3F)c2Cl)CC1` [Example 252]: the activity at 10 µM was determined as 648%.

Take `O=C(NC1CCOCC1)N1CCC(n2cnc(-c3cccc(F)c3)c2Cl)CC1` [Example 253]: the activity at 10 µM was 899%.

Turning to `N#Cc1c(-c2ccc(F)cc2)ncn1C1CCN(C(=O)NC2CCCCC2)CC1` [Example 255], the activity at 10 µM came to 759%.

As to `Cc1c(-c2ccc(F)cc2)ncn1C1CCN(C(=O)NC(C)(C)C)CC1` [Example 257], the activity at 10 µM was 439%.

For the compound `Cc1c(-c2ccc(F)cc2)ncn1C1CCN(C(=O)NC2CCOCC2)CC1` [Example 259], the activity at 10 µM amounted to 420%.

For `CC(C)(F)C(=O)N1CCC(n2cnc(-c3ccc(F)cc3)c2)CC1` [Example 260], the activity at 10 µM turned out to be 146%.

For `O=C(C1CCC(F)(F)CC1)N1CCC(n2cnc(-c3ccc(F)cc3)c2)CC1` [Example 261], the activity at 10 µM was 399%.

For the compound `O=C(C1CCOCC1)N1CCC(n2cnc(-c3ccc(C(F)(F)F)cc3)c2Cl)CC1` [Example 262], the activity at 10 µM amounted to 603%.

`CC(C)(F)C(=O)N1CCC(n2cnc(-c3ccc(F)cc3)c2Cl)CC1` [Example 263]: the activity at 10 µM turned out to be 193%.

As to `O=C(C1CCOCC1)N1CCC(n2cnc(-c3ccc(Cl)cc3)c2Cl)CC1` [Example 264], the activity at 10 µM worked out at 781%.

Staying with this test, now noted: GH4-C1, 10 μM test compound; ratio of RLU (Max-Min) of test wells to control wells after ACh at EC20; GH4C1 cells expressing human α7 nAChR and aequorin; read-out: α7PAM (%) @10 μM.
For `O=C(NC1CCCCC1)[C@H]1CC[C@H](n2cnc(-c3ccccc3)c2)CC1` [Example 231], the activity at 10 µM came out at 149%.

Consider `CC(C)(C)NC(=O)[C@H]1CC[C@H](n2cnc(-c3ccccc3)c2)CC1` [Example 232], for which the activity at 10 µM was determined as 113%.

Turning to `O=C(NC1CCCCC1)[C@H]1CC[C@H](n2cnc(-c3ccccc3)c2Cl)CC1` [Example 233], the activity at 10 µM is 102%.

Regarding `CC(C)(C)NC(=O)[C@H]1CC[C@H](n2cnc(-c3ccccc3)c2Cl)CC1` [Example 234], the activity at 10 µM turned out to be 130%.

As to `FC(F)(F)c1cc(N[C@H]2CC[C@@H](n3cnc(-c4ccccc4)c3)CC2)ncn1` [Example 235, N-[cis-4-(4-Phenyl-1H-imidazol-1-yl)cyclohexyl]-6-(trifluoromethyl)pyrimidin-4-amine], the activity at 10 µM came out at 631%.

The values are drawn from patent US20150259344A1, “IMIDAZOLE DERIVATIVE” (DAINIPPON SUMITOMO PHARMA CO., LTD., priority 2012, published 2015).
